US12644097B2, “Differentiation of trophectoderm lineage cells from pluripotent stem cells” (The United States of America, as represented by the …, priority 2020, dated 2026)

Key:
[1] = tested on: trophoblast stem-like cells; test: Passaging of trophoblast stem-like cells in TE3 medium with or without Chroman 1 or CEPT supplementation; format: cell-based, human; details: additional 25 nM Chroman 1, alone or as component of CEPT, in TE3 medium (total 50 nM Chroman 1) for first 24 hours after passaging; WA09-derived cells, reproduced with JHU191i, JHU198i, MCW032i, WA07
Description: To generate self-renewing trophoblast stem-like cells from the syncytiotrophoblast-like structures, the syncytiotrophoblast-like structures were cultured in TE3 medium: TE2 medium supplemented with 300 nM CHIR98014, 100 ng/ml EGF, 50 ng/ml HGF, 80 ng/ml R-spondin 1, 50 ng/ml R-spondin 3, 2.5 μM prostaglandin E2 and 25 nM Chroman 1. Trophoblast stem-like cells appeared in the cultures and started proliferating after a very short time following the start of the culturing into TE3 medium. The cells created compact epithelial-like colonies with cobblestone morphology and clearly defined border. The individual cells gradually became more compact. This morphological transformation was most obvious at passage 3 performed in TE3 medium.
The trophoblast stem-like cells were cultured in TE3 medium with or without CEPT supplementation, and also with or without Chroman 1 supplementation. For Chroman 1 or CEPT supplementation, when the trophoblast stem-like cells were passaged, the cells were seeded into TE3 medium supplemented with either an additional 25 nM Chroman 1 (for Chroman 1 supplementation) or CEPT containing 25 nM Chroman 1 (for CEPT supplementation). Since TE3 medium already contained 25 nM Chroman 1, only another 25 nM was added either alone or as a component of CEPT, so that the total concentration of Chroman 1 in TE3 medium was 50 nM for the first 24 hours after passaging. […]

[2] = cited from earlier work; for IC50: as described in Sidrauski et al. eLIFE 2:e00498 (2013)

SMILES | effect of supplementation at passaging on trophoblast stem-like cells [1] | IC50 [2] [nM] | potency of trans-ISRIB relative to cis-ISRIB ([2]; trans-ISRIB more potent than cis-ISRIB, Sidrauski et al. 2013) [fold]
COc1ccc2c(c1)C[C@H](C(=O)Nc1ccc(-c3cn[nH]c3)cc1OCCN(C)C)CO2 [Chroman 1, (3S)—N-{2-[2-(Dimethylamino)ethoxy]-4-(1H-pyrazol-4-yl)phenyl}-6-methoxy-3,4-dihydro-2H-1-benzopyran-3-carboxamide] | benefited |  | 
O=C(COc1ccc(Cl)cc1)NC1CCC(NC(=O)COc2ccc(Cl)cc2)CC1 (stereo not drawn) [cis-ISRIB] |  | 600 | 
O=C(COc1ccc(Cl)cc1)N[C@H]1CC[C@H](NC(=O)COc2ccc(Cl)cc2)CC1 [trans-ISRIB, N,N′-((1r,4r)-cyclohexane-1,4-diyl)bis(2-(4-chlorophenoxy)acetamide)] |  | 5 | 100
